Test results: patent US20250241962A1, “METHODS AND COMPOSITIONS FOR INCREASING NEURONAL ACTIVITY AND SYNAPTIC PLASTICITY” (SanBio, Inc., priority 2024, published 2025)

Experiments:
[1] = test system: vandefitemcel (or SB623 cells); assay: PrestoBlue cell viability of vandefitemcel treated with CB-839; type: cell-based, human; settings: incubation with CB-839, PrestoBlue HS
Description: Approximately 50 μL of conditioned medium (CM) was used to determine the glutamate concentration and cell viability. For this assay, PrestoBlue™ high-sensitivity (HS) Cell Viability Reagent (from Thermo Fisher Scientific, Waltham, MA) was used and the reaction absorbance of each sample was read after 2 hours of incubation following the manual procedure provided by the manufacturer.
Glutamate can be involved in cell metabolism, where it is transformed into α-ketoglutarate and then enters into the tricarboxylic acid cycle to generate ATP [25].

glutamate receptor = assay: Glutamate receptor blockage on iFbN culture (MEA spike activity); type: cell-based, human; settings: 50 μM
Description: Glutamatergic or GABAergic neurons, 9×10^4 cells per well or 1×10^5 cells per well, were plated in 25 μL volume cell in BrainPhys™ medium supplemented with NeuroCult™ SM1 neuronal supplement and incubated for 30-45 minutes at 37° C. and 5% CO2. For coculturing, vandefitemcel (or SB623) cells or astrocytes were cocultured by adding 10-20 μL of cell solution with 1.5×10^4 cells per well following a new incubation for 45 minutes at 37° C. and 5% CO2. Fresh medium was added to reach a volume of 400 μL per well and cells incubated at 37° C. and 5% CO2. Half of the medium volume was changed every three or four days. To isolate the presynaptic activity on MEAs with iFbNs after 50 days of culture, 50 μM of the broad glutamate receptor antagonist Kynurenic acid (from R&D Systems, Minneapolis, MN) was added at 90 seconds from the start of the recording. Spike activity was assessed to detect the blockage of glutamate receptor activity.
MEA recordings were performed at 37° C. and 5% CO2 using Maestro Edge (from Axion Biosystems, Atlanta, GA). The medium was changed at least two hours before the recordings. Before recordings, levels of CO2 were adjusted to 5%. The duration of each recording was five minutes using AxIS Navigator 3.6.2 with configuration module Neural Real-Time; Spontaneous+Viability from Axion Biosystems with minimum spike rate for active electrodes of five spikes/minute.

Compound | viability of vandefitemcel [1] | spike activity of iFbN culture (glutamate receptor)
O=C(Cc1cccc(OC(F)(F)F)c1)Nc1ccc(CCCCc2nnc(NC(=O)Cc3ccccn3)s2)nn1 [CB-839, Telaglenastat] | did not alter the viability | –
O=C(O)c1cc(=O)c2ccccc2[nH]1 [kynurenic acid, Kynurenic acid] | – | reduction in the spike activity
